Results taken from US20130302442A1, “METHODS OF USING (4S,4AS,5AR,12AS)-4-DIMETHYLAMINO-3,10,12,12A-TETRAHYDROXY-7-[(METHOXY(METHYL)AMINO)-METHYL]-1,11-DIOXO-1,4,4A,5,5A,6,11,12A-OCTAHYDRO-NAPHTHACENE-2-CARBOXYLIC ACID AMIDE” (priority 2012, published 2013).
Converted amounts (≈) assume the structure as drawn. Where two headings read alike, the source gives them in different places.

How the values were obtained:
S. haemolyticus = test: In vitro MIC testing, antibacterial spectrum of activity; format: cell-based; settings: S. haemolyticus (33 isolates)
P. granulosum = test: as above; format: cell-based; settings: P. granulosum [clinical isolates] (3 isolates)
[1] = tested on: Bacteroides thetaiotaomicron; test: In vitro MIC testing against anaerobic bacteria; format: cell-based
Fusobacterium nucleatum = test: In vitro MIC testing against anaerobic bacteria; format: cell-based; settings: ATCC25586; Fusobacterium nucleatum 3962, ATCC 25586; read-out: MIC
Bacteroides ovatus = test: In vitro MIC testing against anaerobic bacteria; format: cell-based
Clostridium difficile = test: In vitro MIC testing against anaerobic bacteria; format: cell-based
Clostridium perfringens = test: microbe, parasite or virus in culture; format: cell-based
Bacteroides fragilis = test: In vitro MIC testing against anaerobic bacteria; format: cell-based
E. faecium = test: In vitro MIC testing, antibacterial spectrum of activity; format: cell-based; settings: for MIC / MIC50 / MIC90: Enterococcus faecium; for MIC50: read-out: MIC50; for MIC90: read-out: MIC90
[2] = tested on: Streptococcus intermedius; test: In vitro MIC testing against anaerobic bacteria; format: cell-based; settings: ATCC27335; Streptococcus intermedius 1203, ATCC 27335
[3] = tested on: Streptococcus spp. [Group C]; test: In vitro MIC testing, antibacterial spectrum of activity; format: cell-based; settings: Streptococcus spp. [Group C] (30 isolates); read-out: MIC50
K. pneumoniae = test: as above; format: cell-based; settings: Klebsiella pneumoniae
[4] = tested on: Prevotella melaninogenica; test: In vitro MIC testing against anaerobic bacteria; format: cell-based; settings: Prevotella melaninogenica 3443, read-out: MIC
Bifidobacterium infantis = test: In vitro MIC testing against anaerobic bacteria; format: cell-based; settings: ATCC15702; Bifidobacterium infantis 3966, ATCC 15702
Propionibacterium acnes = test: In vitro MIC testing against anaerobic bacteria; format: cell-based; settings: Cutibacterium acnes, read-out: MIC
Bifidobacterium brevi = test: In vitro MIC testing against anaerobic bacteria; format: cell-based; settings: ATCC15698; Bifidobacterium brevi 3967, ATCC 15698
Lactobacillus casei = test: In vitro MIC testing against anaerobic bacteria; format: cell-based; settings: Lacticaseibacillus casei, ATCC393; Lactobacillus casei 1722, ATCC 393
Bacteroides vulgatus = test: In vitro MIC testing against anaerobic bacteria; format: cell-based
[5] = tested on: Peptostreptococcus micros; test: In vitro MIC testing against anaerobic bacteria; format: cell-based; settings: Parvimonas micra, read-out: MIC
[6] = tested on: Fusobacterium necrophorum; test: In vitro MIC testing against anaerobic bacteria; format: cell-based; settings: ATCC25286; Fusobacterium necrophorum 3963, ATCC 25286; read-out: MIC
S. pneumoniae = test: In vitro MIC testing, antibacterial spectrum of activity; format: cell-based, Streptococcus pneumoniae
[7] = tested on: Lactobacillus acidophilus; test: In vitro MIC testing against anaerobic bacteria; format: cell-based; settings: Lactobacillus acidophilus 0681
Bifidobacterium bifidum = test: In vitro MIC testing against anaerobic bacteria; format: cell-based; settings: ATCC15696; Bifidobacterium bifidum 3965, ATCC 15696
Bifidobacterium longum = test: In vitro MIC testing against anaerobic bacteria; format: cell-based; settings: ATCC15707; Bifidobacterium longum 3968, ATCC 15707
S. agalactiae = test: In vitro MIC testing, antibacterial spectrum of activity; format: cell-based
[8] = tested on: Peptostreptococcus anaerobius; test: In vitro MIC testing against anaerobic bacteria; format: cell-based
E. coli = test: In vitro MIC testing, antibacterial spectrum of activity; format: cell-based; settings: E. coli [tetS] (7 isolates)
Veillonella parvula = test: In vitro MIC testing against anaerobic bacteria; format: cell-based; settings: ATCC17745; Veillonella parvula 1272, ATCC 17745
Prevotella spp. = test: In vitro MIC testing against anaerobic bacteria; format: cell-based
P. mirabilis = test: In vitro MIC testing, antibacterial spectrum of activity; format: cell-based; settings: Proteus mirabilis; P. mirabilis (30 isolates)
S. pyogenes = test: as above; format: cell-based
Lactobacillus plantarum = test: In vitro MIC testing against anaerobic bacteria; format: cell-based; settings: Lactiplantibacillus plantarum, ATCC39268; Lactobacillus plantarum 2791, ATCC 39268
P. aeruginosa = test: In vitro MIC testing, antibacterial spectrum of activity; format: cell-based; settings: Pseudomonas aeruginosa; P. aeruginosa (11 isolates)

Compound: CN(C)c1ccc(O)c2c1C[C@H]1C[C@H]3[C@H](N(C)C)C(O)=C(C(N)=O)C(=O)[C@@]3(O)C(O)=C1C2=O [Minocycline, minocycline]
- MIC Range (S. haemolyticus): ≦0.03-0.5 μg/mL
- MIC50 (S. haemolyticus; Staphylococcus haemolyticus, read-out: MIC50): 0.06 µg/mL (≈ 0.131 µM)
- MIC90 (S. haemolyticus; Staphylococcus haemolyticus, read-out: MIC90): 0.5 µg/mL (≈ 1.09 µM)
- MIC Range (P. granulosum): 0.25 to 0.5 µg/mL
- MIC ([1]; Bacteroides thetaiotaomicron 3399): 0.03 µg/mL (≈ 0.0656 µM)
- MIC ([1]; Bacteroides thetaiotaomicron 3496): 8 µg/mL (≈ 17.5 µM)
- MIC (Fusobacterium nucleatum): 0.06 µg/mL (≈ 0.131 µM)
- MIC (Bacteroides ovatus; Bacteroides ovatus 3503, read-out: MIC): 4 µg/mL (≈ 8.74 µM)
- MIC (Bacteroides ovatus; Bacteroides ovatus 3508, read-out: MIC): 0.03 µg/mL (≈ 0.0656 µM)
- MIC (Clostridium difficile; Clostridioides difficile): 0.03 µg/mL (≈ 0.0656 µM)
- MIC (Clostridium difficile; Clostridium difficile 3584): 0.03 µg/mL (≈ 0.0656 µM)
- MIC (Clostridium perfringens): 8 µg/mL (≈ 17.5 µM)
- MIC (Bacteroides fragilis; Bacteroides fragilis 3374, read-out: MIC): 0.03 µg/mL (≈ 0.0656 µM)
- MIC (Bacteroides fragilis; Bacteroides fragilis 3479, read-out: MIC): 8 µg/mL (≈ 17.5 µM)
- MIC Range (E. faecium; E. faecium [tetR] (6 isolates)): 2 to 32 µg/mL
- MIC Range (E. faecium; E. faecium [tetS] (4 isolates)): 0.25 to 0.5 µg/mL
- MIC (E. faecium; E. faecium strain PBS # 965, tetM): 8 µg/mL (≈ 17.5 µM)
- MIC (E. faecium; E. faecium strain PBS # 1323, tetK): 2 µg/mL (≈ 4.37 µM)
- MIC (E. faecium; E. faecium strain PBS # 1324, tetO): 2 µg/mL (≈ 4.37 µM)
- MIC50 (E. faecium; E. faecium [VRE] (30 isolates)): 0.25 µg/mL (≈ 0.546 µM)
- MIC90 (E. faecium; E. faecium [VRE] (30 isolates)): 16 µg/mL (≈ 35 µM)
- MIC50 (E. faecium; E. faecium [VSE] (32 isolates)): 0.12 µg/mL (≈ 0.262 µM)
- MIC90 (E. faecium; E. faecium [VSE] (32 isolates)): 16 µg/mL (≈ 35 µM)
- MIC [2]: 0.25 µg/mL (≈ 0.546 µM)
- MIC50 [3]: 0.06 µg/mL (≈ 0.131 µM)
- MIC50 (K. pneumoniae; K. pneumoniae (31 isolates)): 4 µg/mL (≈ 8.74 µM)
- MIC90 (K. pneumoniae; K. pneumoniae (31 isolates)): > 32 µg/mL
- MIC (K. pneumoniae; K. pneumoniae strain PBS # 266, tetD): 64 µg/mL (≈ 140 µM)
- MIC [4]: 1 µg/mL (≈ 2.19 µM)
- MIC (Bifidobacterium infantis): 0.25 µg/mL (≈ 0.546 µM)
- MIC (Propionibacterium acnes; ATCC11829, Propionibacterium acnes 1286, ATCC 11829): 0.5 µg/mL (≈ 1.09 µM)
- MIC (Propionibacterium acnes; Propionibacterium acnes 1713): 0.06 µg/mL (≈ 0.131 µM)
- MIC (Bifidobacterium brevi): 0.25 µg/mL (≈ 0.546 µM)
- MIC (Lactobacillus casei): 0.5 µg/mL (≈ 1.09 µM)
- MIC (Bacteroides vulgatus; Bacteroides vulgatus 3494): 8 µg/mL (≈ 17.5 µM)
- MIC (Bacteroides vulgatus; Phocaeicola vulgatus, Bacteroides vulgatus 3389, read-out: MIC): 8 µg/mL (≈ 17.5 µM)
- MIC ([5]; Peptostreptococcus micros 3432): 0.06 µg/mL (≈ 0.131 µM)
- MIC ([5]; Peptostreptococcus micros 3545): 0.25 µg/mL (≈ 0.546 µM)
- MIC [6]: 0.06 µg/mL (≈ 0.131 µM)
- MIC Range (S. pneumoniae; S. pneumoniae [tetS] (5 isolates)): 0.25-0.25 μg/mL
- MIC50 (S. pneumoniae; Streptococcus pneumoniae, S. pneumoniae [PSSP] (32 isolates), read-out: MIC50): 0.06 µg/mL (≈ 0.131 µM)
- MIC90 (S. pneumoniae; Streptococcus pneumoniae, S. pneumoniae [PSSP] (32 isolates), read-out: MIC90): 0.12 µg/mL (≈ 0.262 µM)
- MIC [7]: 0.5 µg/mL (≈ 1.09 µM)
- MIC (Bifidobacterium bifidum): 0.25 µg/mL (≈ 0.546 µM)
- MIC (Bifidobacterium longum): 1 µg/mL (≈ 2.19 µM)
- MIC Range (S. agalactiae; S. agalactiae [tetS] (3 isolates)): 0.5-0.5 μg/mL
- MIC50 (S. agalactiae; Streptococcus agalactiae, S. agalactiae (31 isolates), read-out: MIC50): 16 µg/mL (≈ 35 µM)
- MIC90 (S. agalactiae; Streptococcus agalactiae, S. agalactiae (31 isolates), read-out: MIC90): 16 µg/mL (≈ 35 µM)
- MIC ([8]; Peptostreptococcus anaerobius 3526): 1 µg/mL (≈ 2.19 µM)
- MIC ([8]; Peptostreptococcus anaerobius 3531): 2 µg/mL (≈ 4.37 µM)
- MIC Range (E. coli): 0.5 to 4 µg/mL
- MIC (Veillonella parvula): 0.5 µg/mL (≈ 1.09 µM)
- MIC (Prevotella spp.; Prevotella spp. 3564): 0.25 µg/mL (≈ 0.546 µM)
- MIC (Prevotella spp.; Prevotella spp. 3568): 0.25 µg/mL (≈ 0.546 µM)
- MIC50 (P. mirabilis): 16 µg/mL (≈ 35 µM)
- MIC90 (P. mirabilis): > 32 µg/mL
- MIC Range (S. pyogenes; S. pyogenes [tetS] (5 isolates)): 0.25 to 0.5 µg/mL
- MIC (S. pyogenes; Streptococcus pyogenes, S. pyogenes strain PBS # 330, tetO): 8 µg/mL (≈ 17.5 µM)
- MIC50 (S. pyogenes; Streptococcus pyogenes, S. pyogenes (32 isolates), read-out: MIC50): 0.06 µg/mL (≈ 0.131 µM)
- MIC (Lactobacillus plantarum): 0.5 µg/mL (≈ 1.09 µM)
- MIC50 (P. aeruginosa): > 32 µg/mL
- MIC90 (P. aeruginosa): > 32 µg/mL
